{
  "source": "ChEMBL document CHEMBL4673232",
  "about": "“Optimization of a series of potent, selective and orally bioavailable SYK inhibitors” (Bioorg Med Chem Lett, 2020)",
  "key": {"[1]": {"assay": "Metabolic stability in human liver microsomes assessed as intrinsic clearance", "format": "ADME, Microsome", "settings": "read-out: CLH"}, "[2]": {"assay": "Metabolic stability in rat hepatocyte assessed as intrinsic clearance", "format": "ADME, tissue-based", "settings": "hepatocytes"}, "[3]": {"assay": "Lipophilicity, logD of compound", "format": "physicochemical", "settings": "octanol/water"}, "[4]": {"assay": "Dissociation constant, pKa of the compound", "format": "physicochemical"}, "[5]": {"assay": "Volume of distribution at steady state in Han Wistar rat at 0.5 mg/kg, iv or 1 mg/kg, po", "format": "ADME, organism-based", "settings": "in vivo, read-out: Vdss"}, "[6]": {"assay": "Metabolic stability in human hepatocyte assessed as intrinsic clearance", "format": "ADME, tissue-based", "settings": "hepatocytes"}, "[7]": {"assay": "Oral bioavailability in CD-1 mouse at 1 mg/kg", "format": "ADME, organism-based", "settings": "in vivo"}, "[8]": {"assay": "Clearance for unbound fraction in CD-1 mouse at 0.5 mg/kg, iv or 1 mg/kg, po", "format": "ADME, organism-based", "settings": "in vivo"}, "[9]": {"assay": "Oral bioavailability in Han Wistar rat at 1 mg/kg", "format": "ADME, organism-based", "settings": "in vivo"}, "[10]": {"settings": "mouse, hepatocytes"}, "[11]": {"assay": "Apparent permeability of the compound across apical to basolateral side in human Caco-2 cells at pH 6.5", "format": "ADME, cell-based", "settings": "Caco-2, pH 6.5"}, "[12]": {"assay": "Volume of distribution at steady state in CD-1 mouse at 0.5 mg/kg, iv or 1 mg/kg, po", "format": "ADME, organism-based", "settings": "in vivo, read-out: Vdss"}, "[13]": {"assay": "Solubility of compound", "format": "physicochemical"}, "[14]": {"assay": "Clearance in CD-1 mouse at 0.5 mg/kg, iv or 1 mg/kg, po", "format": "ADME, organism-based", "settings": "in vivo"}, "[15]": {"assay": "Clearance in Han Wistar rat at 0.5 mg/kg, iv or 1 mg/kg, po", "format": "ADME, organism-based", "settings": "in vivo"}, "[16]": {"assay": "Unbound clearance in Han Wistar rat at 0.5 mg/kg, iv or 1 mg/kg, po", "format": "ADME, organism-based", "settings": "in vivo"}},
  "data": [
    {"compound": "CNC(=O)c1nn(C)c2ccc(Nc3nccc(-n4cc(CN(C)C)c(OC)n4)n3)cc12", "values": [
      {"measurement": "microsomal CLint", "setting": "[1]", "result": 103, "unit": "µL/min/mg"},
      {"measurement": "CLH", "setting": "[2]", "result": 21, "unit": "µL/min"},
      {"measurement": "logD", "setting": "[3]", "result": 2.3}
    ]},
    {"compound": "Cc1nn(-c2ccnc(Nc3ccc4c(c3)c(Cl)c(C)n4C)n2)cc1CN1CC(O)C1", "values": [
      {"measurement": "microsomal CLint", "setting": "[1]", "result": 49, "unit": "µL/min/mg"},
      {"measurement": "CLH", "setting": "[2]", "result": 66, "unit": "µL/min"},
      {"measurement": "logD", "setting": "[3]", "result": 3.9}
    ]},
    {"compound": "Cc1nnc(-c2nn(C)c3ccc(Nc4nccc(-c5cc(CN(C)C)n(C)n5)n4)cc23)o1", "values": [
      {"measurement": "CLH", "setting": "[2]", "result": 14, "unit": "µL/min"},
      {"measurement": "logD", "setting": "[3]", "result": 2.6}
    ]},
    {"compound": "CNC(=O)c1nn(C)c2c(C)cc(Nc3nccc(-n4cc(CN(C)C)cn4)n3)cc12", "values": [
      {"measurement": "microsomal CLint", "setting": "[1]", "result": 32, "unit": "µL/min/mg"},
      {"measurement": "CLH", "setting": "[2]", "result": 49, "unit": "µL/min"},
      {"measurement": "logD", "setting": "[3]", "result": 2.3}
    ]},
    {"compound": "CNC(=O)c1nn(C)c2ccc(Nc3nccc(-n4cc(CN(C)C)c(F)n4)n3)cc12", "values": [
      {"measurement": "microsomal CLint", "setting": "[1]", "result": 84, "unit": "µL/min/mg"},
      {"measurement": "CLH", "setting": "[2]", "result": 34, "unit": "µL/min"},
      {"measurement": "logD", "setting": "[3]", "result": 2.8}
    ]},
    {"compound": "CNC(=O)c1ncn2ccc(Nc3nccc(-n4cc(CN(C)C)cn4)n3)cc12", "values": [
      {"measurement": "microsomal CLint", "setting": "[1]", "result": 9, "unit": "µL/min/mg"},
      {"measurement": "CLH", "setting": "[2]", "result": 34, "unit": "µL/min"},
      {"measurement": "logD", "setting": "[3]", "result": 1.4}
    ]},
    {"compound": "CNC(=O)c1nc(C)n2ccc(Nc3nccc(-n4cc([C@@H]5C[C@H](O)CN5C)cn4)n3)cc12", "values": [
      {"measurement": "pKa", "setting": "[4]", "result": 7.9},
      {"measurement": "microsomal CLint", "setting": "[1]", "result": 110, "unit": "µL/min/mg"},
      {"measurement": "CLH", "setting": "[2]", "result": 17, "unit": "µL/min"},
      {"measurement": "logD", "setting": "[3]", "result": 2}
    ]},
    {"compound": "COC(=O)c1nn(C)c2c(C)cc(Nc3nccc(-c4cc(CN(C)C)n(C)n4)n3)cc12", "values": [
      {"measurement": "CLH", "setting": "[2]", "result": 186, "unit": "µL/min"},
      {"measurement": "logD", "setting": "[3]", "result": 3.2}
    ]},
    {"compound": "Cc1nnc(-c2nc(C)n3ccc(Nc4nccc(-c5cc(CN(C)C)n(C)n5)n4)cc23)o1", "values": [
      {"measurement": "pKa", "setting": "[4]", "result": 7.2},
      {"measurement": "Vd", "setting": "[5]", "result": 11, "unit": "L/kg"},
      {"measurement": "CLH", "setting": "[6]", "result": 1.9, "unit": "µL/min"},
      {"measurement": "bioavailability", "setting": "[7]", "result": 7, "unit": "%"},
      {"measurement": "CL free", "setting": "[8]", "result": 955, "unit": "mL/min/kg"},
      {"measurement": "bioavailability", "setting": "[9]", "result": 5, "unit": "%"},
      {"measurement": "microsomal CLint", "setting": "[1]", "result": 40, "unit": "µL/min/mg"},
      {"measurement": "CLH", "setting": "[2]", "result": 12, "unit": "µL/min"},
      {"measurement": "CLH", "setting": "[10]", "result": 44, "unit": "µL/min"},
      {"measurement": "Papp A→B", "setting": "[11]", "result": 6.5, "unit": "×10⁻⁶ cm/s"},
      {"measurement": "Vd", "setting": "[12]", "result": 8, "unit": "L/kg"},
      {"measurement": "solubility", "setting": "[13]", "result": 97, "unit": "µM"},
      {"measurement": "clearance", "setting": "[14]", "result": 255, "unit": "mL/min/kg"},
      {"measurement": "clearance", "setting": "[15]", "result": 189, "unit": "mL/min/kg"},
      {"measurement": "logD", "setting": "[3]", "result": 2.4},
      {"measurement": "CL free", "setting": "[16]", "result": 787, "unit": "mL/min/kg"}
    ]},
    {"compound": "CNC(=O)c1nn(C)c2ccc(Nc3nccc(-c4cc(CN(C)C)n(C)n4)n3)cc12", "values": [
      {"measurement": "pKa", "setting": "[4]", "result": 7.3},
      {"measurement": "microsomal CLint", "setting": "[1]", "result": 93, "unit": "µL/min/mg"},
      {"measurement": "CLH", "setting": "[2]", "result": 51, "unit": "µL/min"},
      {"measurement": "logD", "setting": "[3]", "result": 2.2}
    ]},
    {"compound": "CN(C)Cc1cnn(-c2ccnc(Nc3ccc4c(c3)c(C(=O)N(C)C)nn4C)n2)c1", "values": [
      {"measurement": "microsomal CLint", "setting": "[1]", "result": 43, "unit": "µL/min/mg"},
      {"measurement": "CLH", "setting": "[2]", "result": 33, "unit": "µL/min"},
      {"measurement": "logD", "setting": "[3]", "result": 1.7}
    ]},
    {"compound": "CNC(=O)c1nn(C)c2ccc(Nc3nccc(-n4cc(CN5CC(O)C5)c(C)n4)n3)cc12", "values": [
      {"measurement": "pKa", "setting": "[4]", "result": 8.6},
      {"measurement": "microsomal CLint", "setting": "[1]", "result": 78, "unit": "µL/min/mg"},
      {"measurement": "CLH", "setting": "[2]", "result": 19, "unit": "µL/min"},
      {"measurement": "logD", "setting": "[3]", "result": 1.9}
    ]},
    {"compound": "CNC(=O)c1nc(C)n2ccc(Nc3nccc(-n4cc([C@@H]5C[C@@H](F)CN5C)cn4)n3)cc12", "values": [
      {"measurement": "microsomal CLint", "setting": "[1]", "result": 278, "unit": "µL/min/mg"},
      {"measurement": "CLH", "setting": "[2]", "result": 31, "unit": "µL/min"}
    ]},
    {"compound": "CNC(=O)c1nn(C)c2c(C)cc(Nc3nccc(-c4cc(CN(C)C)n(C)n4)n3)cc12", "values": [
      {"measurement": "microsomal CLint", "setting": "[1]", "result": 106, "unit": "µL/min/mg"},
      {"measurement": "CLH", "setting": "[2]", "result": 64, "unit": "µL/min"},
      {"measurement": "logD", "setting": "[3]", "result": 2.6}
    ]},
    {"compound": "CNC(=O)c1nn(C)c2ccc(Nc3nccc(-n4cc(CN(C)C)cn4)n3)cc12", "values": [
      {"measurement": "Vd", "setting": "[5]", "result": 1.1, "unit": "L/kg"},
      {"measurement": "CLH", "setting": "[6]", "result": 21, "unit": "µL/min"},
      {"measurement": "bioavailability", "setting": "[9]", "result": 60, "unit": "%"},
      {"measurement": "microsomal CLint", "setting": "[1]", "result": 52, "unit": "µL/min/mg"},
      {"measurement": "CLH", "setting": "[2]", "result": 31, "unit": "µL/min"},
      {"measurement": "solubility", "setting": "[13]", "result": 909, "unit": "µM"},
      {"measurement": "clearance", "setting": "[15]", "result": 8, "unit": "mL/min/kg"},
      {"measurement": "logD", "setting": "[3]", "result": 1.8},
      {"measurement": "CL free", "setting": "[16]", "result": 250, "unit": "mL/min/kg"}
    ]}
  ]
}
